Legend:
[1] = pH-controlled solubility and rock-face adsorption of isoelectric surfactant; assay type: physicochemical
Description: An example of an isoelectric non-linear molecular surfactant is a modified rigid ring structure with a zwitterionic to control solubility and surface activity. Molecular surfactant is defined as a group of atoms bonded together, representing the smallest fundamental unit of a chemical compound. In one non-limiting descriptive example, cholic acid is bound to a zwitterionic bi-functional compound, such as threonine. One (1) equivalent of cholic acid is suspended in an aprotic polar solvent, tetrahydrofuran with the addition of a base catalysis, pyridine. The primed rigid ring moiety structure is titrated with one (1) to three (3) equivalents of a zwitterionic coupling agent, and/or silane threonine, in an aprotic polar solvent. Purified product has applications in surface modification chemistry across materials and production markets. One non-limiting identified application is the oil and gas industry's unconventional resource collections through improving production recovery by controlling the rock wettability and reducing the translation motion energy through rock porosity and fractures. The zwitterionic nature of the isoelectric non-linear molecular surfactant enables the production recovery increase by allowing the production team to control when the surfactant becomes insoluble and favors surface adsorption to the formation's porous and fracture surface. […]

[2] = emulsion suspension of liquid epoxy resin: particle size dispersion, suspension stability, pumping through sand packs; assay type: physicochemical; details: 71 mM surfactant
Description: The suspension was maintained for up to 1 month unchanged.

pH at which surfactant is triggered to adsorb to the rock face ([1]; formation rock face) | pH at which surfactant is soluble in pumping solutions ([1]; pumping solutions) | SMILES | time suspension was maintained unchanged ([2]; 23 wt. % solids epoxy resin suspension) | particle size dispersion D50 of nanoemulsion ([2]; 23 wt. % solids suspension of bisphenol A/epichlorohydrin-derived liquid epoxy resin) [nm]
5.6 | below 5.5 | CC(O)C(NC(=O)CCC(C)C1CCC2C3C(O)CC4CC(O)CCC4(C)C3CC(O)C12C)C(=O)O (stereo not shown) | – | –
– | – | C[C@H](CCC(=O)O)[C@H]1CC[C@H]2[C@@H]3[C@H](O)C[C@@H]4C[C@H](O)CC[C@]4(C)[C@H]3C[C@H](O)[C@]12C [3α,7α,12α-trihydroxy-5β-cholan-24-oic acid] | up to 1 month | 450

Source: patent US11572508B2, “Non-linear surfactant” (Powdermet, Inc., priority 2018, dated 2023)
